We go through 3 compounds from patent US20240148038A1, “TASTE-MASKING COMPOUNDS AND COMPOSITIONS AND USES THEREOF” (HEALTHTECH BIO ACTIVES, S.L.U., priority 2021, published 2024).

Data set [1] is described as follows: Masking bitterness of paracetamol: test panel, equibitter paracetamol solution. The data set is classed as in vivo. Here is the method:
The bitter masking effect of hesperidin against paracetamol was assayed. The anti-bittering effect was measured as a dose-response profile vs. a solution of paracetamol.
A calibrated test panel compared each solution with several solutions of paracetamol in water at different concentrations and determined the equibitter paracetamol solution. The equibitter solution was calculated as the average of all the evaluations of the panel.
The masking effect or percentage of bitterness reduction was then calculated from the reference amount of paracetamol contained in each tested solution (5000 ppm) and the amount of paracetamol in the equibitter solution, using the following formula: […]
Thus, for example, a solution containing 5000 ppm of paracetamol and 250 ppm of hesperidin was equibitter to a solution containing 4000 ppm of paracetamol. Therefore, the masking effect was 20%.
The bitter masking effect of a racemic hesperidin (57% hesperidin 2S: 43% hesperidin 2R; purchased by HealthTech Bio Actives, S.L.U. Beniel, Spain) against paracetamol was also assayed. The anti-bittering effect was measured as a dose-response profile vs. a solution of paracetamol as described above.
Further, the bitter masking effect of a different flavonoid compound, neodiosmin (purchased by HealthTech Bio Actives, S.L.U. Beniel, Spain), was also tested. The anti-bittering effect was measured as a dose-response profile vs. a solution of paracetamol as explained before.

Data set [2] in a line: Panel evaluation in orange juices containing oleuropeins. The settings on record: orange juice with 500 ppm Olews 40%. The data set is classed as in vivo. Here is the method: NaOH:H2O solutions containing different concentrations (100 ppm and 200 ppm) of Hesperidin 2S were prepared as explained above (Table 1) and added to orange juices containing 500 ppm Olews 40% (500 ppm Olews 40%=160 ppm oleuropein). Olews 40% provided by HealthTech Bio Actives S.L.U. (Beniel, Spain).
The taste masking effect against oleuropeins was assayed following an analogous procedure to the one used in Example 1 for paracetamol.
For each tested solution, a test panel determined the equibitter oleuropein solution, and the masking effect was calculated as explained in Example 1. A panel of experts was used to determine the reduction in unpleasant taste impressions of the orange juice preparations containing oleuropeins after addition of H2S.

Data set [3] is described as follows: Panel evaluation in plant-based burger containing oleuropeins. In kind it is in vivo. The settings on record: plant-based burger with 2000 ppm Olews 40%. Here is the method:
Reduction of unpleasant taste impression in a plant-based burger was evaluated using different concentrations of H2S (100 ppm and 200 ppm). Hesperidin 2S (dry powder) was incorporated into the preparations containing 2000 ppm Olews 40% provided by HealthTech Bio Actives, S.L.U. (Beniel, Spain) (2000 ppm Olews 40%=[…]) as indicated in Table 11 below:
A panel of experts was used to determine the reduction in unpleasant taste impressions of the plant-based burger preparations.

The nature of data set [4]: Panel evaluation in crackers with reduced NaCl containing KCl. In kind it is in vivo. The settings on record: 200 ppm H2S. Here is the method:
A dosage of 200 ppm of H2S was added to crackers with reduced content of sodium chloride (NaCl) and containing potassium chloride (KCl; Panreac). The composition of the crackers is disclosed in Table 4 below:
The taste masking effect was assayed, following an analogous procedure to the one disclosed in Example 1. A panel of experts was used to determine the reduction in unpleasant taste impressions of the potassium chloride-containing preparations after addition of H2S.

Data set [5] can be described thus: Panel evaluation in protein milkshake. In kind it is in vivo. The settings on record: 100 ppm or 200 ppm H2S. Here is the method:
NaOH:H2O solutions containing different concentrations (100 ppm and 200 ppm) of Hesperidin 2S were prepared as explained above (Table 1) and added to a protein milkshake prepared as indicated in Table 12 below.
The taste masking effect was assayed, following an analogous procedure to the one used in Example 1. A panel of experts was used to determine the reduction in unpleasant taste impressions of the protein milkshake preparations after addition of H2S.

A short description of data set [6]: Panel evaluation in greening affected orange juices. The data set is classed as in vivo. The settings on record: greening affected orange juice. Here is the method:
Orange Juice samples obtained from oranges from trees afflicted with greening disease were provided by F&M Solutions (Brasil). The juice samples were prepared by squeezing oranges collected from afflicted tree branches from local Brazilian farmers. The squeezed orange juice was bottled and pasteurized by standard methods well known in the art.
Different concentrations of Hesperidin 2S (100 ppm and 200 ppm) were evaluated in the orange juices from greening afflicted oranges.
A panel of experts was used to determine the reduction in unpleasant taste impressions of the different samples.

Data set [7] in a line: Panel evaluation in limonin solution (greening disease model). In kind it is in vivo. The settings on record: 200 ppm H2S in limonin 50 ppm solution. Here is the method:
In order to determine the reduction in unpleasant taste impressions (bitterness) by hesperidin in a greening disease model, a limonin solution was prepared as indicated in Table 6. This solution was used for testing. Limonin (99.66%) was purchased from TargetMol.
The effect of H2S (200 ppm) in a limonin solution (50 ppm) was evaluated. A panel of experts was used to determine the reduction in unpleasant taste impressions of the limonin-containing preparation.

A short description of data set [8]: Panel evaluation in dark chocolate 95%. In kind it is in vivo. Here is the method:
Reduction of unpleasant taste impressions in dark chocolate (95%) preparations was evaluated using different concentrations of H2S (100 ppm and 200 ppm).
Hesperidin 2S (dry powder) was incorporated into a sample of melted dark chocolate (95%). The liquid mass was cooled and mold, obtaining a solid chocolate.
A panel of experts was used to determine the reduction in unpleasant taste impressions of the dark chocolate (95%) preparations.

A short description of data set [9]: Panel evaluation in fresh squeezed orange juices. The settings on record: 100 ppm or 200 ppm H2S; fresh squeezed orange juice. In kind it is in vivo. Here is the method: NaOH:H2O solutions containing different concentrations (100 ppm and 200 ppm) of Hesperidin 2S were prepared as explained above (Table 1) and added to fresh squeezed orange juices.
A panel of experts was used to determine the reduction in unpleasant tastes of the fresh squeezed orange juices after addition of different concentrations of H2S.

A short description of data set [10]: Panel evaluation in tonic water. In kind it is in vivo. The settings on record: quinine salt 78 ppm. Here is the method:
NaOH:H2O solutions containing different concentrations (100 ppm and 200 ppm) of Hesperidin 2S were prepared as explained above (Table 1) and added to a tonic water samples prepared as indicated in Table 10 below:
A panel of experts was used to determine the reduction in unpleasant taste impression of the different samples.

A short description of another data set: Solubility in water. In kind it is physicochemical. Here is the method:
Hesperidin 2S has a very low solubility in water (less than 10 ppm). However, in presence of NaOH, its solubility increases. In order to study the component in liquid matrixes, a non-heated H2O—NaOH solution was prepared (Table 1).

Where [11] appears, read: 10 ppm test substance in 5000 ppm paracetamol aqueous solution.
Setting [12] is: 50 ppm test substance in 5000 ppm paracetamol aqueous solution.
[13] abbreviates: 100 ppm test substance in 5000 ppm paracetamol aqueous solution.
The mark [14] stands for this setting: 250 ppm test substance in 5000 ppm paracetamol aqueous solution.
Where [15] appears, read: 500 ppm test substance in 5000 ppm paracetamol aqueous solution.
Setting [16] is: 250 ppm test substance in 5000 ppm paracetamol aqueous solution, listed as hesperidin.

`COc1ccc([C@@H]2CC(=O)c3c(O)cc(O[C@@H]4O[C@H](CO[C@@H]5O[C@@H](C)[C@H](O)[C@@H](O)[C@H]5O)[C@@H](O)[C@H](O)[C@H]4O)cc3O2)cc1O` (racemic) [Racemic Hesperidin, hesperidin]: the “% of bitterness reduction” value in data set [1] (setting [11]) is 4%; in data set [1] (setting [12]), 6%; in [1] (setting [13]), 13%; in [1] (setting [14]), 18%. The Equibitter paracetamol concentration in data set [1] (setting [11]) amounted to 4800 ppm; in data set [1] (setting [12]) it was 4700 ppm; in [1] (setting [13]), 4350 ppm; in [1] (setting [14]), 4100 ppm.

As for `COc1ccc(-c2cc(=O)c3c(O)cc(O[C@@H]4O[C@H](CO)[C@@H](O)[C@H](O)[C@H]4O[C@@H]4O[C@@H](C)[C@H](O)[C@@H](O)[C@H]4O)cc3o2)cc1O` [Neodiosmin, neodiosmin, reference compound], the “% of bitterness reduction” value was determined as 12% in [1] (setting [12]), 12% in data set [1] (setting [13]), 16% in data set [1] (setting [14]) and 24% in data set [1] (setting [15]). For the same compound, the Equibitter paracetamol concentration in data set [1] (setting [12]) was 4400 ppm; in data set [1] (setting [13]), 4400 ppm; in data set [1] (setting [14]) it was 4200 ppm; in data set [1] (setting [15]) it was 3800 ppm.

Regarding `COc1ccc([C@@H]2CC(=O)c3c(O)cc(O[C@@H]4O[C@H](CO[C@@H]5O[C@@H](C)[C@H](O)[C@@H](O)[C@H]5O)[C@@H](O)[C@H](O)[C@H]4O)cc3O2)cc1O` (racemic) [Hesperidin 2S, (2S)-5-hydroxy-2-(3-hydroxy-4-methoxyphenyl)-7-[(2S,3R,4S,5S,6R)-3,4,5-trihydroxy-6-{[(2R,3R,4R,5R,6S)-3,4,5-trihydroxy-6-methyloxan-2-yl]oxymethyl}oxan-2-yl]oxy-2,3-dihydrochromen-4-one], the orange notes result in data set [2] (200 ppm H2S (FIG. 1B)) was “enhanced”. Also, the “woody and bitter taste coming from the oleuropein masked” value in data set [2] (200 ppm H2S (FIG. 1B)) came out at 40%. For the same compound, the “woody and bitter taste” value in [2] (200 ppm H2S as printed (FIG. 1A)) is listed as “masked”. Further, the bitterness entry was “decrease” in data set [3] (100 ppm H2S), “decrease” in [8] (200 ppm H2S as printed), “significant reduction” in data set [10] (100 ppm H2S) and “reduction” in [10] (200 ppm H2S). For the same compound, the flavonoid notes result in data set [3] (100 ppm H2S), in data set [3] (200 ppm H2S) and in data set [8] (200 ppm H2S) was “not present” throughout. The woody off-flavor notes result in data set [3] (100 ppm H2S) and in data set [3] (200 ppm H2S) was “reduced” in each case. For the same compound, the “bitterness and bean notes” value in [3] (200 ppm H2S) was “decreased”. Moreover, the “pungent and metallic notes” value in data set [4] (KCl-containing crackers) is “suppressed”. For the same compound, in [4] (crackers with reduced sodium chloride), the saltiness entry is on record as “increase”. Moreover, the bitter taste entry in [5] was “reduced”. In addition, the dry fava notes entry in data set [5] is given as “reduced”. In addition, the “bitterness, acidity and astringency” value was “significant reduction” in data set [6] (100 ppm H2S) and “reduction” in [6] (200 ppm H2S, to a lesser extent than 100 ppm). For the same compound, the flavonoid note result in [6] (100 ppm H2S) is “noticeable”; in data set [6] (200 ppm H2S), “increased”. Also, the “green orange notes and bitter aftertaste” value in [6] (100 ppm H2S) is “Reduction”; in [6] (200 ppm H2S), “reduction”. Besides, the overall orange notes result in data set [6] (100 ppm H2S) is recorded as “slight reduction”; in [6] (200 ppm H2S), “reduction”. Moreover, the “% of bitterness reduction” value in data set [7] was determined as 30%; in data set [1] (setting [11]) it was 5%; in [1] (setting [12]) it was 11%; in data set [1] (setting [13]), 20%; in [1] (setting [14]) it was 37%; in data set [1] (250 ppm test substance in 5000 ppm paracetamol aqueous solution, listed as H2S) it was 37%. For the same compound, the “% of bitterness reduction” value in [1] (setting [16]) was 20%; in data set [1] (250 ppm test substance in 5000 ppm paracetamol aqueous solution, listed as non-racemic hesperidin 2S), 37%. This compound also showed an Equibitter in [7] of 35 ppm. Also, in [8] (200 ppm H2S), the bitterness and astringency result is recorded as “decreased”. Moreover, the cocoa notes entry in data set [8] (200 ppm H2S as printed) is given as “slightly enhanced”. Also, in [9], the “astringent and bitter taste” value is given as “clearly reduced”. In the data set “Solubility in water” (in presence of NaOH), the “solubility in presence of NaOH” value is listed as “increases”. Besides, in “Solubility in water” (water), the solubility in water entry is given as “less than 10 ppm”. Further, the Equibitter paracetamol concentration came out at 4750 ppm in data set [1] (setting [11]); 4450 ppm in [1] (setting [12]); 4000 ppm in [1] (setting [13]); 3150 ppm in [1] (setting [14]); 4000 ppm in data set [1] (setting [16]).
